Measurements from PubChem BioAssay (NCI).
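In this assay, cells in 96-well plates receive the compound at five concentrations for 48 hours. Endpoints are linearly interpolated between the surrounding concentrations. Definition used: TGI = concentration required for complete inhibition of growth.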

Tests used:
Experiment in all cases: NCI anticancer screen, dose series, 48 h
HL-60(TB) leukemia = tested on: HL-60(TB) leukemia
HOP-62 NSCLC = tested on: HOP-62 NSCLC
KM12 colon = tested on: KM12 colon
KM20L2 colon = tested on: KM20L2 colon
M14 melanoma = tested on: M14 melanoma
MALME-3M melanoma = tested on: MALME-3M melanoma
MOLT-4 leukemia = tested on: MOLT-4 leukemia
NCI-H460 lung = tested on: NCI-H460 lung
NCI-H522 lung = tested on: NCI-H522 lung
OVCAR-5 ovarian = tested on: OVCAR-5 ovarian
OVCAR-8 ovarian = tested on: OVCAR-8 ovarian
RPMI-8226 leukemia = tested on: RPMI-8226 leukemia
SK-MEL-5 melanoma = tested on: SK-MEL-5 melanoma
SN12C renal = tested on: SN12C renal
SNB-19 CNS = tested on: SNB-19 CNS

In the case of `CSc1nc(NC2OC(COC(C)=O)C(OC(C)=O)C(OC(C)=O)C2OC(C)=O)c(-c2csc(N)n2)c(=O)n1C` (stereo not given), the TGI (HL-60(TB) leukemia) is reported as greater than 100 µM, the TGI (HOP-62 NSCLC) is reported as 66.9 µM and the TGI (KM12 colon) is reported as greater than 100 µM. It also gave a TGI (KM20L2 colon) greater than 100 µM, a TGI (M14 melanoma) greater than 100 µM and a TGI (MALME-3M melanoma) greater than 100 µM. The TGI (MOLT-4 leukemia) was greater than 100 µM, the TGI (NCI-H460 lung) was greater than 100 µM and the TGI (NCI-H522 lung) was greater than 100 µM. It also gave a TGI (OVCAR-5 ovarian) greater than 100 µM, a TGI (OVCAR-8 ovarian) of 86.9 µM and a TGI (RPMI-8226 leukemia) greater than 100 µM. For the same compound, the TGI (SK-MEL-5 melanoma) was greater than 100 µM, the TGI (SN12C renal) was greater than 100 µM and the TGI (SNB-19 CNS) was greater than 100 µM.
